Results taken from the supplement of paper PMC10307832.

Assays:
Test in all cases: relative viability (nuclei count vs DMSO), 5 days (fraction); higher = more cells survive
201T = tested on: 201T
Method in brief: (§1)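 Nuclei were stained with Hoechst during a one-step fixation (final 0.05% Triton X-100, 1% formaldehyde, 1 ug/ml Hoechst) carried out 5 days after dosing, then counted on 4× images. The cells, lung cancer lines in 1536-well plates, had been dosed by pin tool the day after seeding with one drug alone or a fixed anchor-drug dose plus five library-drug doses (not always all listed) in √10 steps. Relative viability is the nuclei count in treated wells divided by that in vehicle wells, and each value is the median of duplicate plates.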

ABC-1 = tested on: ABC-1
Method in brief: as §1

COR-L 105 = tested on: COR-L 105
Method in brief: as §1

COR-L23 = tested on: COR-L23
Method in brief: as §1

EKVX = tested on: EKVX
Method in brief: as §1

EPLC-272H = tested on: EPLC-272H
Method in brief: as §1

H3255 = tested on: H3255
Method in brief: as §1

HCC-15 = tested on: HCC-15
Method in brief: as §1

HCC-44 = tested on: HCC-44
Method in brief: as §1

HCC-827 = tested on: HCC-827
Method in brief: as §1

LCLC-103H = tested on: LCLC-103H
Method in brief: as §1

NCI-H1437 = tested on: NCI-H1437
Method in brief: as §1

NCI-H1650 = tested on: NCI-H1650
Method in brief: as §1

NCI-H1651 = tested on: NCI-H1651
Method in brief: as §1

NCI-H1792 = tested on: NCI-H1792
Method in brief: as §1

NCI-H1975 = tested on: NCI-H1975
Method in brief: as §1

NCI-H2087 = tested on: NCI-H2087
Method in brief: as §1

NCI-H358 = tested on: NCI-H358
Method in brief: as §1

NCI-H520 = tested on: NCI-H520
Method in brief: as §1

NCI-H647 = tested on: NCI-H647
Method in brief: as §1

NCI-H661 = tested on: NCI-H661
Method in brief: as §1

NCI-H727 = tested on: NCI-H727
Method in brief: as §1

UMC-11 = tested on: UMC-11
Method in brief: as §1

Q: Which results are given for `O=c1[nH]c2ccccc2n1C1CCN(CCCC(c2ccc(F)cc2)c2ccc(F)cc2)CC1` [Pimozide] + CC(=O)c1c(C)c2cnc(Nc3ccc(N4CCNCC4)cn3)nc2n(C2CCCC2)c1=O [Palbociclib] (partner 0.5 µM)?
A: relative viability (201T; first compound 0.08 µM): 0.363; relative viability (201T; first compound 0.253 µM): 0.356; relative viability (201T; first compound 0.8 µM): 0.337; relative viability (201T; first compound 2.53 µM): 0.314; relative viability (201T; first compound 8 µM): 0.342; relative viability (ABC-1; first compound 0.08 µM): 0.527; relative viability (ABC-1; first compound 0.253 µM): 0.565; relative viability (ABC-1; first compound 0.8 µM): 0.874; relative viability (ABC-1; first compound 2.53 µM): 0.614; relative viability (ABC-1; first compound 8 µM): 0.462; relative viability (COR-L 105; first compound 0.08 µM): 0.378; relative viability (COR-L 105; first compound 0.253 µM): 0.399; relative viability (COR-L 105; first compound 0.8 µM): 0.409; relative viability (COR-L 105; first compound 2.53 µM): 0.426; relative viability (COR-L 105; first compound 8 µM): 0.416; relative viability (COR-L23; first compound 0.08 µM): 0.291; relative viability (COR-L23; first compound 0.253 µM): 0.346; relative viability (COR-L23; first compound 0.8 µM): 0.293; relative viability (COR-L23; first compound 2.53 µM): 0.267; relative viability (COR-L23; first compound 8 µM): 0.307; relative viability (EKVX; first compound 0.253 µM): 0.4; relative viability (EKVX; first compound 0.8 µM): 0.343; relative viability (EKVX; first compound 2.53 µM): 0.387; relative viability (EKVX; first compound 8 µM): 0.37; relative viability (EPLC-272H; first compound 0.08 µM): 0.309; relative viability (EPLC-272H; first compound 0.253 µM): 0.308; relative viability (EPLC-272H; first compound 0.8 µM): 0.328; relative viability (EPLC-272H; first compound 2.53 µM): 0.329; relative viability (EPLC-272H; first compound 8 µM): 0.333; relative viability (H3255; first compound 0.253 µM): 0.312; relative viability (H3255; first compound 0.8 µM): 0.299; relative viability (H3255; first compound 2.53 µM): 0.307; relative viability (H3255; first compound 8 µM): 0.312; relative viability (HCC-15; first compound 0.08 µM): 0.747; relative viability (HCC-15; first compound 0.253 µM): 0.641; relative viability (HCC-15; first compound 0.8 µM): 0.673; relative viability (HCC-15; first compound 2.53 µM): 0.652; relative viability (HCC-15; first compound 8 µM): 0.653; relative viability (HCC-44; first compound 0.08 µM): 0.975; relative viability (HCC-44; first compound 0.253 µM): 0.982; relative viability (HCC-44; first compound 0.8 µM): 0.946; relative viability (HCC-44; first compound 2.53 µM): 0.925; relative viability (HCC-44; first compound 8 µM): 0.859; relative viability (HCC-827; first compound 0.253 µM): 0.449; relative viability (HCC-827; first compound 0.8 µM): 0.459; relative viability (HCC-827; first compound 2.53 µM): 0.484; relative viability (HCC-827; first compound 8 µM): 0.514; relative viability (LCLC-103H; first compound 0.08 µM): 0.451; relative viability (LCLC-103H; first compound 0.253 µM): 0.46; relative viability (LCLC-103H; first compound 0.8 µM): 0.428; relative viability (LCLC-103H; first compound 2.53 µM): 0.444; relative viability (LCLC-103H; first compound 8 µM): 0.489; relative viability (NCI-H1437; first compound 0.08 µM): 0.338; relative viability (NCI-H1437; first compound 0.253 µM): 0.328; relative viability (NCI-H1437; first compound 0.8 µM): 0.25; relative viability (NCI-H1437; first compound 2.53 µM): 0.256; relative viability (NCI-H1437; first compound 8 µM): 0.265; relative viability (NCI-H1650; first compound 0.08 µM): 0.287; relative viability (NCI-H1650; first compound 0.253 µM): 0.378; relative viability (NCI-H1650; first compound 0.8 µM): 0.265; relative viability (NCI-H1650; first compound 2.53 µM): 0.352; relative viability (NCI-H1650; first compound 8 µM): 0.271; relative viability (NCI-H1651; first compound 0.08 µM): 0.514; relative viability (NCI-H1651; first compound 0.253 µM): 0.466; relative viability (NCI-H1651; first compound 0.8 µM): 0.534; relative viability (NCI-H1651; first compound 2.53 µM): 0.497; relative viability (NCI-H1651; first compound 8 µM): 0.546; relative viability (NCI-H1792; first compound 0.08 µM): 0.665; relative viability (NCI-H1792; first compound 0.253 µM): 0.635; relative viability (NCI-H1792; first compound 0.8 µM): 0.625; relative viability (NCI-H1792; first compound 2.53 µM): 0.589; relative viability (NCI-H1792; first compound 8 µM): 0.52; relative viability (NCI-H1975; first compound 0.08 µM): 0.402; relative viability (NCI-H1975; first compound 0.253 µM): 0.515; relative viability (NCI-H1975; first compound 0.8 µM): 0.619; relative viability (NCI-H1975; first compound 2.53 µM): 0.593; relative viability (NCI-H1975; first compound 8 µM): 0.494; relative viability (NCI-H2087; first compound 0.08 µM): 0.197; relative viability (NCI-H2087; first compound 0.253 µM): 0.233; relative viability (NCI-H2087; first compound 2.53 µM): 0.274; relative viability (NCI-H2087; first compound 8 µM): 0.195; relative viability (NCI-H358; first compound 0.08 µM): 0.141; relative viability (NCI-H358; first compound 0.253 µM): 0.132; relative viability (NCI-H358; first compound 0.8 µM): 0.127; relative viability (NCI-H358; first compound 2.53 µM): 0.147; relative viability (NCI-H358; first compound 8 µM): 0.143; relative viability (NCI-H520; first compound 0.08 µM): 0.265; relative viability (NCI-H520; first compound 0.253 µM): 0.22; relative viability (NCI-H520; first compound 0.8 µM): 0.191; relative viability (NCI-H520; first compound 2.53 µM): 0.217; relative viability (NCI-H520; first compound 8 µM): 0.213; relative viability (NCI-H647; first compound 0.08 µM): 0.404; relative viability (NCI-H647; first compound 0.253 µM): 0.509; relative viability (NCI-H647; first compound 0.8 µM): 0.384; relative viability (NCI-H647; first compound 2.53 µM): 0.32; relative viability (NCI-H647; first compound 8 µM): 0.313; relative viability (NCI-H661; first compound 0.08 µM): 0.4; relative viability (NCI-H661; first compound 0.253 µM): 0.412; relative viability (NCI-H661; first compound 0.8 µM): 0.367; relative viability (NCI-H661; first compound 2.53 µM): 0.395; relative viability (NCI-H661; first compound 8 µM): 0.327; relative viability (NCI-H727; first compound 0.08 µM): 0.544; relative viability (NCI-H727; first compound 0.253 µM): 0.661; relative viability (NCI-H727; first compound 0.8 µM): 0.696; relative viability (NCI-H727; first compound 2.53 µM): 0.676; relative viability (NCI-H727; first compound 8 µM): 0.609; relative viability (UMC-11; first compound 0.08 µM): 0.313; relative viability (UMC-11; first compound 0.253 µM): 0.35; relative viability (UMC-11; first compound 0.8 µM): 0.315; relative viability (UMC-11; first compound 2.53 µM): 0.278; relative viability (UMC-11; first compound 8 µM): 0.367
